Measured values reported in the supplement of paper PMC10307832.

Legend:
Assay in all cases: relative viability (nuclei count vs DMSO), 5 days (fraction); higher = more cells survive
[1] = compound: OCc1c[nH]c2ccccc12 [Indole-3-carbinol] + CS(=O)(=O)N1CCN(Cc2cc3nc(-c4cccc5[nH]ncc45)nc(N4CCOCC4)c3s2)CC1 [Pictilisib] (partner 1 µM)
Method in brief: (§1)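 Five library-drug doses in √10 steps were combined with a fixed anchor-drug dose, or a single drug was given alone, by pin tool to lung cancer cell lines in 1536-well plates the day after seeding. Nuclei were stained and counted after 5 days. Relative viability is the nuclei count in treated wells over that in vehicle wells, taken as the median of duplicate plates.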

[2] = compound: OCc1c[nH]c2ccccc12 [Indole-3-carbinol] + CS(=O)(=O)CCNCc1ccc(-c2ccc3ncnc(Nc4ccc(OCc5cccc(F)c5)c(Cl)c4)c3c2)o1 [Lapatinib] (partner 2 µM)
Method in brief: as §1

[3] = compound: OCc1c[nH]c2ccccc12 [Indole-3-carbinol] + Nc1nc2[nH]cc(CCc3ccc(C(=O)N[C@@H](CCC(=O)O)C(=O)O)cc3)c2c(=O)[nH]1 [Pemetrexed] (partner 0.2 µM)
Method in brief: as §1

[4] = compound: OCc1c[nH]c2ccccc12 [Indole-3-carbinol] + CC(C)C[C@H](NC(=O)[C@H](Cc1ccccc1)NC(=O)c1cnccn1)B(O)O [Bortezomib] (partner 0.002 µM)
Method in brief: as §1

[5] = compound: OCc1c[nH]c2ccccc12 [Indole-3-carbinol] + CC(=O)c1c(C)c2cnc(Nc3ccc(N4CCNCC4)cn3)nc2n(C2CCCC2)c1=O [Palbociclib] (partner 0.5 µM)
Method in brief: as §1

Row | Cell Line | relative viability ([1]; first compound 0.253 µM) | relative viability ([1]; first compound 0.8 µM) | relative viability ([1]; first compound 2.53 µM) | relative viability ([1]; first compound 8 µM) | relative viability ([2]; first compound 0.253 µM) | relative viability ([2]; first compound 0.8 µM) | relative viability ([2]; first compound 2.53 µM) | relative viability ([2]; first compound 8 µM) | relative viability ([3]; first compound 0.253 µM) | relative viability ([3]; first compound 0.8 µM) | relative viability ([3]; first compound 2.53 µM) | relative viability ([3]; first compound 8 µM) | relative viability ([4]; first compound 0.253 µM) | relative viability ([4]; first compound 0.8 µM) | relative viability ([4]; first compound 2.53 µM) | relative viability ([4]; first compound 8 µM) | relative viability ([5]; first compound 0.253 µM) | relative viability ([5]; first compound 0.8 µM) | relative viability ([5]; first compound 2.53 µM) | relative viability ([5]; first compound 8 µM)
1 | 201T | 0.653 | 0.682 | 0.621 | 0.699 | 1.1 | 0.969 | 1.01 | 0.999 | 0.345 | 0.354 | 0.362 | 0.322 | 1.17 | 0.996 | 1.11 | 1.1 | 0.357 | 0.396 | 0.356 | 0.34
2 | A549 | 0.493 | 0.686 | 0.555 | 0.456 | 0.952 | 1.11 | 0.995 | 0.938 |  |  |  |  |  |  |  |  |  |  |  | 
3 | A-427 | 0.74 | 0.66 | 0.679 | 0.588 | 1.03 | 1 | 0.989 | 0.976 | 0.997 | 1.03 | 0.926 | 0.946 | 0.937 | 0.992 | 1.03 | 0.886 | 0.52 | 0.568 | 0.547 | 0.491
4 | ABC-1 | 0.755 | 0.786 | 0.782 | 0.66 | 1.27 | 1.2 | 1.37 | 0.845 |  |  |  |  | 0.297 | 0.292 | 0.324 | 0.33 | 0.681 | 0.807 | 0.794 | 0.735
5 | BEN | 0.497 | 0.456 | 0.69 | 0.542 | 0.782 | 0.72 | 0.718 | 0.696 | 0.75 | 0.704 | 0.757 | 0.905 | 0.91 | 0.729 | 0.966 | 0.727 | 0.495 | 0.445 | 0.512 | 0.485
6 | CAL-12T | 0.338 | 0.616 | 0.398 | 0.377 | 0.728 | 0.592 | 0.665 | 0.527 | 1.28 | 1.44 | 1.12 | 1.24 | 0.983 | 1 | 0.842 | 0.819 | 0.443 | 0.517 | 0.573 | 0.398
7 | COR-L23 | 0.876 | 0.848 | 0.828 | 0.674 | 0.921 | 0.918 | 0.998 | 0.887 | 0.193 | 0.202 | 0.198 | 0.209 | 0.926 | 1.14 | 0.899 | 0.883 | 0.323 | 0.245 | 0.308 | 0.237
8 | COR-L 105 | 0.371 | 0.374 | 0.432 | 0.382 | 0.339 | 0.281 | 0.353 | 0.343 | 1.09 | 0.996 | 1.19 | 0.981 | 0.847 | 0.733 | 0.812 | 0.806 | 0.439 | 0.408 | 0.41 | 0.397
9 | ChaGo-K-1 | 0.524 | 0.891 | 0.666 | 0.649 |  |  |  |  | 0.258 | 0.258 | 0.27 | 0.257 | 0.871 | 0.988 | 0.896 | 1.06 | 0.942 | 0.939 | 0.994 | 0.968
10 | EKVX | 0.43 | 0.449 | 0.418 | 0.402 | 0.203 | 0.18 | 0.207 | 0.198 | 0.4 | 0.46 | 0.413 | 0.452 | 1.24 | 1.1 | 1.12 | 1.04 | 0.384 | 0.36 | 0.386 | 0.452
11 | EMC-BAC-2 | 0.532 | 0.453 | 0.555 | 0.359 | 0.879 | 0.76 | 0.852 | 0.813 | 0.393 | 0.441 | 0.439 | 0.448 | 0.994 | 1.01 | 1.08 | 1.02 | 0.507 | 0.519 | 0.507 | 0.489
12 | EPLC-272H | 0.337 | 0.329 | 0.293 | 0.298 | 1.3 | 0.851 | 1.04 | 0.716 | 0.34 | 0.349 | 0.36 | 0.349 | 1.27 | 0.925 | 0.985 | 0.837 | 0.325 | 0.376 | 0.318 | 0.334
13 | H3255 | 0.427 | 0.483 | 0.467 | 0.48 | 0.245 | 0.235 | 0.227 | 0.255 | 0.547 | 0.54 | 0.637 | 0.625 | 0.899 | 0.852 | 0.748 | 0.732 | 0.302 | 0.32 | 0.347 | 0.307
14 | HARA | 0.299 | 0.573 | 0.573 | 0.407 | 0.932 | 0.737 | 0.711 | 0.654 | 0.267 | 0.239 | 0.243 | 0.242 | 1.2 | 1.06 | 1.11 | 1.06 | 0.303 | 0.249 | 0.281 | 0.232
